Here are results for one compound from ChEMBL document CHEMBL2375272, “Identification of RC-33 as a potent and selective σ1 receptor agonist potentiating NGF-induced neurite outgrowth in PC12 cells. Part 2: g-scale synthesis, physicochemical characterization and in vitro metabolic stability” (Bioorg Med Chem, 2013).

Data set [1] is described as follows: Drug metabolism in rat liver S9 fraction assessed as oxidative metabolism after 4 hrs by UPLC-UV-PAD method in presence of NADPH. Type of data set: ADME, subcellular. The note with it: read-out: Drug metabolism.
Data set [2] relates to Blood. In words: Metabolic stability in mouse blood after 4 hrs by UPLC-UV/PAD method. Type of data set: ADME, tissue-based.
Data set [3] relates to Blood. The data set can be described thus: Metabolic stability in rat blood after 4 hrs by UPLC-UV/PAD method. Type of data set: ADME, tissue-based.
The nature of data set [4]: Drug metabolism in rat plasma after 4 hrs by UPLC-UV/PAD method. Type of data set: ADME, cell-free. The note with it: read-out: Drug metabolism.
The nature of data set [5]: Half life in rat liver S9 fraction by UPLC-UV-PAD method in presence of NADPH. Type of data set: ADME, subcellular.
Data set [6] is described as follows: Half life in human liver S9 fraction by UPLC-UV-PAD method in presence of NADPH. Type of data set: ADME, subcellular.
Data set [7] can be described thus: Drug metabolism in rat liver S9 fraction assessed as non-oxidative metabolism after 4 hrs by UPLC-UV-PAD method. Type of data set: ADME, subcellular. The settings on record: read-out: Drug metabolism.
A short description of data set [8]: Drug metabolism in human liver S9 fraction assessed as non-oxidative metabolism after 4 hrs by UPLC-UV-PAD method. Type of data set: ADME, subcellular. The settings on record: read-out: Drug metabolism.
A short description of data set [9]: Drug metabolism in human plasma after 4 hrs by UPLC-UV/PAD method. Type of data set: ADME, cell-free. The note with it: read-out: Drug metabolism.
The nature of data set [10]: Solubility of the compound in phosphate buffer at pH 7.4 by UV spectrophotometric analysis. Type of data set: physicochemical.
A short description of data set [11]: Solubility of the compound in water by UV spectrophotometric analysis. Type of data set: physicochemical.
Data set [12] in a line: Solubility of the compound in physiological solution by UV spectrophotometric analysis. Type of data set: physicochemical.
A short description of data set [13]: Drug metabolism in dog plasma after 4 hrs by UPLC-UV/PAD method. Type of data set: ADME, cell-free, Canis lupus familiaris. The settings on record: read-out: Drug metabolism.
The nature of data set [14]: Drug metabolism in human liver S9 fraction assessed as oxidative metabolism after 4 hrs by UPLC-UV-PAD method in presence of NADPH. The settings on record: read-out: Drug metabolism. Type of data set: ADME, subcellular.

In the case of `CC(CCN1CCCCC1)c1ccc(-c2ccccc2)cc1.Cl` (racemic), the metabolised at 4 h is 65% in data set [1]; 6% in data set [4]; 30% in data set [7]; 30% in [8]; 6% in data set [9]; 25% in data set [13]. Moreover, the metabolised at 4 h in [14] stood at 69%. Also, the Stability result in data set [2] and in data set [3] was “Stable” throughout. In addition, the half-life in [5] stood at 1.89 h; in data set [6] it was 2.17 h. In addition, the values for the solubility in data set [10], in data set [11] and in [12] were 32 mg/mL, 33 mg/mL and 8 mg/mL, respectively.

By half-life is commonly meant the time in which the quantity being followed falls by half. By solubility is commonly meant the dissolved amount per volume that the medium holds. Higher therefore signals much dissolved substance.
